Laboratory results taken from ChEMBL document CHEMBL1201862, “PubChem BioAssay data set” (2004).
The source made the active and inactive calls.

Experiments:
[1] = target: E3 ubiquitin-protein ligase Mdm2 (Homo sapiens, UniProt Q00987); experiment: MDM2-luc reporter signal enhancers, multi-concentration potency testing, MDM2 ubiquitin-protein ligase inhibitor program, whole-cell format, luminescence detection, 384-well microplate (AID 1394); assay type: functional;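 also: MDM2 E3 inhibitors raise luminescence so EC50 is for signal enhancement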
E3 ubiquitin-protein ligase Mdm2, sequence (Q00987 whole entry): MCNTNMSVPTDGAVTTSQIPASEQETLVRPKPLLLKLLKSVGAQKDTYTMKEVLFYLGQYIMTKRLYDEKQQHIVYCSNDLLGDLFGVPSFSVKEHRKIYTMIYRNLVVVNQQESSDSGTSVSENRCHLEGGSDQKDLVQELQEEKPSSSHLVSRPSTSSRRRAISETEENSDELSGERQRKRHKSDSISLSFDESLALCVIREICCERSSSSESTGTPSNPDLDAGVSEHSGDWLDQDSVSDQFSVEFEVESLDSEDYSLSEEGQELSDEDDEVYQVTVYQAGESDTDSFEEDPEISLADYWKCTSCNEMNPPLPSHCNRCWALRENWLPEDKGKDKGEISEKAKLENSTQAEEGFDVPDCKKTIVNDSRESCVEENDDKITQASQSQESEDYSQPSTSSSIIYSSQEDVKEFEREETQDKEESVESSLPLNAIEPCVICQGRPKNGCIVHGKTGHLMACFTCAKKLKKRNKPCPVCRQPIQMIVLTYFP

[2] = Luminescence Cell-Based Dose Response to Identify Activators of 5'UTR Stem-Loop Driven Prion Protein mRNA Translation in H4-C Neuroglioblastoma Cells. [Related pubchem assays: 1829 (Project Summary), 1814 (Primary HTS)]; assay type: functional
[3] = Luminescence Cell-Based Dose Response HTS to Identify Activators of Luciferase Translation or Activity in H4 […] Cells. [Related pubchem assays: 1829 (Project Summary), 1814 (Primary HTS)]; assay type: functional
[4] = Luminescence Cell-Based Dose Response to Identify Activators of Luciferase Translation or Activity in H4-C Neuroglioblastoma Cells. [Related pubchem assays: 1829 (Project Summary), 1814 (Primary HTS)]; assay type: functional
[5] = Luminescence Cell-Based Dose Confirmation to Identify Activators of 5'UTR Stem-Loop Driven Alpha-Synuclein mRNA Translation in H4 Neuroglioblastoma Cells. [Related pubchem assays: 1829 (Project Summary), 1814 (Primary HTS)]; assay type: functional
H4 = experiment: Luminescence Cell-Based Dose Response HTS to Identify Activators of 5'UTR Stem-Loop Driven Prion Protein mRNA Translation in H4 Neuroglioblastoma Cells. [Related pubchem assays: 1829 (Project Summary), 1814 (Primary HTS)]; assay type: functional; conditions: Homo sapiens
[6] = growth inhibition of yeast DHODH-expressing 3D7 parasites – SYBR Green, dry powder samples, dose response (AID 1159570); assay type: functional, cell-based;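 also: parasite growth measured after 72 hours of compound exposure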
[7] = toxicity to human HepG2 hepatoma cells – cell-based, plate reader, dry powder samples, cytotoxicity control, dose response (AID 1159569); assay type: functional;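 also: inhibitor potency with signal falling toward the positive control level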
[8] = P. falciparum Dd2 growth inhibitors, dose response, SYBR Green, cherry-picked samples (AID 1159567); assay type: functional, cell-based
[9] = Dd2 malaria parasite growth inhibition potency – SYBR Green, dry powder samples, dose response (AID 1159566); assay type: functional, cell-based;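 also: potency for growth inhibition with lower SYBR green DNA signal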
[10] = growth inhibition of PfATP4-mutant resistant parasites – NITD609-resistant line, SYBR Green, dry powder, dose response (AID 1159571); assay type: functional, cell-based;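 also: parasites synchronized at ring stage by sorbitol before testing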
[11] = NIH-3T3 fibroblast cytotoxicity, dose response, cytotoxicity control, cell-based, fluorescence, Alamar Blue, secondary assay (AID 2327); assay type: functional;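 also: NIH-3T3 mouse fibroblasts cultured with fluconazole at 8 µg/mL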
Aminopeptidase N = target: T1, Aminopeptidase N (Plasmodium falciparum FcB1/Columbia, UniProt O96935); experiment: malaria alanyl aminopeptidase activity blockers – biochemical, fluorogenic H-Leu-NHMec substrate, 1536-well (AID 1445); set-up: species or system Plasmodium falciparum 3D7, 3D7
T1 sequence (O96935 whole entry): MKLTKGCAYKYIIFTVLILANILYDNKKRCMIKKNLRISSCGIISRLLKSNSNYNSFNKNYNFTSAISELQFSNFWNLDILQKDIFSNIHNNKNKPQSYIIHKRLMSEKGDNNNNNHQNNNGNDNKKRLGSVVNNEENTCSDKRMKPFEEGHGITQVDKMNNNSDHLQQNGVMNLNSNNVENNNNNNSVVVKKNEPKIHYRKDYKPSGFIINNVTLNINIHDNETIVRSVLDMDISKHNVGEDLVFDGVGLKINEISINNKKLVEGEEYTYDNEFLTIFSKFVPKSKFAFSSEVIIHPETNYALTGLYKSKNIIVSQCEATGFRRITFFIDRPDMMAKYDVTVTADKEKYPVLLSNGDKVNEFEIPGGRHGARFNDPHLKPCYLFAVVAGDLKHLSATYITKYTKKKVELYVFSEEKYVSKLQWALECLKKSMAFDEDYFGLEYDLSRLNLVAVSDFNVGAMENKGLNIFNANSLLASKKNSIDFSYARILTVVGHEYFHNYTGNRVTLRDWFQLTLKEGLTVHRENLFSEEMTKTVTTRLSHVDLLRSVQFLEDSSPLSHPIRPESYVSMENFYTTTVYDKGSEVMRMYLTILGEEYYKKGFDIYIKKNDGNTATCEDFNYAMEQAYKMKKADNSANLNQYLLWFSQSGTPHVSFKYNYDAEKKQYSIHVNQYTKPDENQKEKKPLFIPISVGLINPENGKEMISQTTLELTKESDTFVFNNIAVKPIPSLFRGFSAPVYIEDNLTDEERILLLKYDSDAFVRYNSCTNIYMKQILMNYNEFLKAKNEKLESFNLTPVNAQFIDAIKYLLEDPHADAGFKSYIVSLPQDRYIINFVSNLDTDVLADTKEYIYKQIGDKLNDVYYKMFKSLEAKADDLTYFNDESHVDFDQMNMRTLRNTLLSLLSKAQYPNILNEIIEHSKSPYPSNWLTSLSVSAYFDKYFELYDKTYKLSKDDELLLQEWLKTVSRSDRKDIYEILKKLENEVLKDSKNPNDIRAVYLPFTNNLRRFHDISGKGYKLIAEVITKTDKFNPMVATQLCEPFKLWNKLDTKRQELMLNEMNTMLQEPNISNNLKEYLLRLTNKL

[12] = fluconazole-exposed Candida albicans growth modulators – fluorescence, retest, confirmation (AID 2467); assay type: functional, cell-based
[13] = target: T2, Replicative DNA helicase DnaB (Mycobacterium tuberculosis, UniProt P9WMR3); experiment: DnaB intein splicing inhibitors, dose response, biochemical, cell-free fluorescence (AID 449749); assay type: functional
T2 sequence (P9WMR3 whole entry): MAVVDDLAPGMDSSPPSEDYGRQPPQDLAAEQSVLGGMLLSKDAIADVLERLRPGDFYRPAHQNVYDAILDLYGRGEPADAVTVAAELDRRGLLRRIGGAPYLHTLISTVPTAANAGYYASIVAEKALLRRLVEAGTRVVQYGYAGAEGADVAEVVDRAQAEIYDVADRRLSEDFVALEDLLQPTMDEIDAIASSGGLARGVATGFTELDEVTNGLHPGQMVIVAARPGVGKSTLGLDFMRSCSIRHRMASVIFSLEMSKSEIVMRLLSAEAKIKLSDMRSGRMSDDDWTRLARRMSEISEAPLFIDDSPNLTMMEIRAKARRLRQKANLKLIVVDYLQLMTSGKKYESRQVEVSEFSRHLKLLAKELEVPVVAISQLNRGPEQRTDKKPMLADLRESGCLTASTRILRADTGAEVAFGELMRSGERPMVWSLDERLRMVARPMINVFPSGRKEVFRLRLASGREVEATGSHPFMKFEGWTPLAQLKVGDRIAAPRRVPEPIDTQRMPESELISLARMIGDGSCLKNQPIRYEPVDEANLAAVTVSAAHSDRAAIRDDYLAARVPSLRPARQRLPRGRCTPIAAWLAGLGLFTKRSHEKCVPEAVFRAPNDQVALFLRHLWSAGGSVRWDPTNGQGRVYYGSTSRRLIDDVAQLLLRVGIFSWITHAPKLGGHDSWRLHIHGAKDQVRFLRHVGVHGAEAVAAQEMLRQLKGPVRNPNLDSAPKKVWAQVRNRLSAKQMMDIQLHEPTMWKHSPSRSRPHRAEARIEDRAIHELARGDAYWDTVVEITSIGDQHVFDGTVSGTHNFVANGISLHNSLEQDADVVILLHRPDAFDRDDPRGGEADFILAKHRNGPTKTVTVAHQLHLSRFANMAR

Protein RecA = target: T3, Protein RecA (Mycobacterium tuberculosis, UniProt P9WHJ3); experiment: Fluorescence Cell-Free Homogeneous Dose Retest to Identify Inhibitors of RecA-Intein Splicing Activity. [Related pubchem assays (depositor defined):AID2097, AID2223, AID489010, AID492950]; assay type: functional
T3 sequence (P9WHJ3 whole entry): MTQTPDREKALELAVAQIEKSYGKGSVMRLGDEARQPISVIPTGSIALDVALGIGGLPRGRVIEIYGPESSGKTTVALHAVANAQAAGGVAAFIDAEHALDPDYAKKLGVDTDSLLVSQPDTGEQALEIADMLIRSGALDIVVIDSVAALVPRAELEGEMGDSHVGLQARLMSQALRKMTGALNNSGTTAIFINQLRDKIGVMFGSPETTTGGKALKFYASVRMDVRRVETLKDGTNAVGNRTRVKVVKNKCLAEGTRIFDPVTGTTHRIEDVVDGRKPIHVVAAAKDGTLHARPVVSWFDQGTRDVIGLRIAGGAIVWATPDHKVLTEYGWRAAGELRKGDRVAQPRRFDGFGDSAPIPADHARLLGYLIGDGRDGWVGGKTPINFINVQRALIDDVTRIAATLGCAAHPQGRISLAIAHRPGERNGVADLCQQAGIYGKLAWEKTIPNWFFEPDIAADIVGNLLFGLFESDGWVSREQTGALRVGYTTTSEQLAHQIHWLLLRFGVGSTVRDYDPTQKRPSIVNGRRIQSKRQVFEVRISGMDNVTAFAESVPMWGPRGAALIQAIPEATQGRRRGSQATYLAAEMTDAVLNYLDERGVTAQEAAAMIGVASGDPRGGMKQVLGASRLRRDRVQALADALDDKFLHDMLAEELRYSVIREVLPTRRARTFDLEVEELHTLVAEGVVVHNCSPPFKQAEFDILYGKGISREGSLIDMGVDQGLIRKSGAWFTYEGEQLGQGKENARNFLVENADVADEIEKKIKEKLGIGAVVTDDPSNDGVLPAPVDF

Caspase-6 = target: T4, Caspase-6 (Homo sapiens, UniProt P55212); experiment: inhibition of CASP6 peptide cleavage – biochemical, VEID-R110 fluorescence, cherry-pick, dose response (AID 720632)
T4 sequence (P55212 whole entry): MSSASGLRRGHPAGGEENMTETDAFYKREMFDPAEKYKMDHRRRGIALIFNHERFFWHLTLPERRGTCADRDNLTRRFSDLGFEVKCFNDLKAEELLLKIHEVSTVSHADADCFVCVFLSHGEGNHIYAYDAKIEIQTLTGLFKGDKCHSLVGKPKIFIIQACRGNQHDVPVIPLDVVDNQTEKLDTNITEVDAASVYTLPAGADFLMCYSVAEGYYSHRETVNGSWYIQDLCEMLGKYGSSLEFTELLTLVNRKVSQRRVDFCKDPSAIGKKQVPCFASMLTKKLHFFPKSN

[14] = viability loss in THP-1 monocytes – THP-1 cells, cytotoxicity control for Vif-APOBEC3G degradation inhibitor project, dose response (AID 1117359); assay type: functional; conditions: THP-1

Q: For `O=C(N/N=C\c1ccc(Cl)s1)c1cccs1`, which EC50 [1] is on record?
A: Its EC50 is 6.96 µM (not active).

Q: Which results are given for `Cc1nc2cc(NC(=O)CCS(=O)(=O)c3ccccc3)ccc2s1`?
A: EC50 [2]: 0.312 µM (active); EC50 [3]: < 0.1 µM (inconclusive); EC50 [4]: 0.264 µM (active); EC50 [5]: 0.069 µM (active)

Q: Which EC50 [1] does the source give for `COc1ccc(C)cc1C1=Nc2ccccc2C1(C)C` here?
A: Its EC50 is 15.4 µM (not active).

Q: For `CC(C)(C)c1ccc(C(=O)NC(=S)N2CCOCC2)cc1`, which EC50 [2] is on record?
A: The EC50 was 0.418 µM (active).

Q: What about the EC50 [3] of the same compound?
A: The EC50 was 0.61 µM (active).

Q: And the EC50 (H4)?
A: Its EC50 is 0.111 µM (active).

Q: And the EC50 [4]?
A: Its EC50 is > 12 µM (not active).

Q: And the EC50 [5]?
A: The EC50 was 2.81 µM (active).

Q: Which results are given for `COc1ccc2c3c(n(C)c2c1)[C@H](CO)N(C(=O)Nc1ccc(F)cc1)CC31CCN(S(=O)(=O)c2cccc(F)c2)CC1`?
A: AC50 [6]: 1.63 µM (active); AC50 [7]: > 100 µM (inactive); AC50 [8]: 1.19 µM (active); AC50 [9]: 0.951 µM (active); AC50 [10]: 1.56 µM (active)

Q: Which EC50 [11] does the source give for `Cc1ccc(C(=O)c2coc3cc([N+](=O)[O-])c(O)c([N+](=O)[O-])c23)cc1` here?
A: Its EC50 is > 160 µM (inactive).

Q: And the IC50 (Aminopeptidase N)?
A: The IC50 was 32.1 µM (active).

Q: And the EC50 [12]?
A: The EC50 was > 38 µM (not active).

Q: What about the AC50 [13] of the same compound?
A: The AC50 was 24.4 µM (active).

Q: And the EC50 (Protein RecA)?
A: The EC50 was 9.46 µM (active).

Q: And the AC50 (Caspase-6)?
A: Its AC50 is 28.8 µM (active).

Q: Which AC50 [6] does the source give for `C[C@H]1CN([C@@H](C)CO)S(=O)(=O)c2ccc(C#Cc3ccncc3)cc2O[C@@H]1CN(C)S(=O)(=O)c1ccccc1` here?
A: Its AC50 is 3 µM (active).

Q: And the AC50 [7]?
A: The AC50 was > 100 µM (inactive).

Q: What about the AC50 [9] of the same compound?
A: The AC50 was 4.05 µM (active).

Q: What about the AC50 [10] of the same compound?
A: Its AC50 is 3.53 µM (active).

Q: With `Cc1ccc(NC(=O)C(=O)c2c(-c3ccccc3)cc3ccccn23)cc1S(=O)(=O)N1CCOCC1` as the compound, how does the CC50 [14] read?
A: The CC50 was > 40 µM (active).
